{"source": "patent US11925654B2", "about": "“Esters of 2-deoxy-monosaccharides with anti proliferative activity” (Board of Regents, The University of Texas System, priority 2013, dated 2024)", "key": {"Colo357-FG": {"tested_on": "Colo357-FG", "test": "MTS cytotoxicity assay, 72 hours drug exposure, Colo357-FG pancreatic cancer cells", "format": "cell-based", "details": "Homo sapiens, COLO 357/FG, final DMSO 0.5%", "experimental": "(§1) In the first set of assays, IC50 values were determined for each compound after 72 hours of drug exposure in each of the tumor cell lines. Cell lines tested include D54, U87, Panc-1, AsPc-1, Colo357-FG, L3.6, H226, H352, H441 cell lines.\nCOLO 357 FG is continuous human cell line, COLO 357, with exceptional characteristics was derived from a metastasis of a pancreatic adenocarcinoma. COLO 357 grew as an adhering monolayer with a cell doubling time of 21 h and grew with 10% clonal efficiency in soft agar. COLO 357 cells had numerous lamellar inclusions. The cells elaborated the pancreatic enzymes trypsin, elastase and chymotrypsin. COLO 357 also secreted appreciable amounts of carcinoembryonic antigen and human chorionic gonadotropin. […] Nine nucleolar organizing regions were found by silver-stained metaphase preparations. COLO 357 has been “fingerprinted” for seven allelic isozymes.\n(§2) All cell lines were maintained in respective growth media at 37° C., 5% CO2 and 98% humidity. Cells were treated with the compounds and all drug concentrations were diluted so that the final concentration of DMSO is 0.5%. The cytotoxic effect was measured by the MTS Assay (Tetrazolium), which is a colorimetric method for determining the number of viable cells. After the 72 hours of incubation with drug, Promega's MTS reagent were added to the cells according to manufacturer's instructions and incubated for 2 hours. The plates were read at 490 nm and the resulting data graphed with GraphPad Prism 5 software.\n(§3) IC50 was calculated, which is approximate equivalent of IG50 (concentration at which 50% growth inhibition is measured). The IC50 values represent […] of the drug concentration."}, "U87": {"tested_on": "U87", "test": "MTS cytotoxicity assay, 72 hours drug exposure, U87 brain tumor cells", "format": "cell-based", "details": "Homo sapiens, U-87 MG, final DMSO 0.5%", "experimental": "as §1\nU87 is a human primary glioblastoma cell line formally known as U-87 MG. It has epithelial morphology, and was obtained from a patient with stage four cancer. U-87 MG can be obtained from the American Type Culture Collection (ATCC) where it is known by the accession number HTB-14. The entire sequence of the genome of U-87 MG has recently been published in PLoS Genetics, 2010 January; 6(1): e1000832. This is a hypodiploid human cell line with the modal chromosome number of 44 occurring in 48% of cells. The rate of higher ploidy was 5.9%. Twelve markers were common to all cells, including der(1)t(1;3) (p22;q21), der(16)t(1;16) (p22;p12), del(9) (p13) and nine others. The marker der(1) had two copies in most cells. There was only one copy of normal X. N1, N6 and N9 were not found.\nas §2, §3"}}, "data": [{"smiles": "CCCC(=O)OCC1OC(O)CC(OC(=O)CCC)C1O", "note": "(centres unmarked) [WP1213]", "values": [{"measurement": "IC50", "setting": "Colo357-FG", "value": 380, "unit": "µM"}, {"measurement": "IC50", "setting": "U87", "value": 240, "unit": "µM"}]}, {"smiles": "CCCC(=O)OC[C@H]1OC(O)C[C@@H](O)[C@@H]1OC(=O)CCC", "note": "(stereo partly drawn) [WP1214, 4,6-Di-O-Butyryl-2-Deoxy-D-Glucopyranose]", "values": [{"measurement": "IC50", "setting": "Colo357-FG", "value": 440, "unit": "µM"}, {"measurement": "IC50", "setting": "U87", "value": 300, "unit": "µM"}]}, {"smiles": "CCC(=O)OC1CC(O)C(O)C(CO)O1", "note": "(centres unmarked) [WP1216]", "values": [{"measurement": "IC50", "setting": "U87", "value": 3580, "unit": "µM"}]}, {"smiles": "CCCC(=O)OC[C@H]1OC(OC(=O)CCC)C[C@@H](O)[C@@H]1O", "note": "(stereo partly drawn) [WP1217, 1,6-Di-O-Butyryl-2-Deoxy-D-Glucopyranose]", "values": [{"measurement": "IC50", "setting": "U87", "value": 2330, "unit": "µM"}]}, {"smiles": "CCC(=O)OCC1OC(O)CC(OC(=O)CC)C1O", "note": "(centres unmarked) [WP1231]", "values": [{"measurement": "IC50", "setting": "Colo357-FG", "value": 550, "unit": "µM"}, {"measurement": "IC50", "setting": "U87", "value": 380, "unit": "µM"}]}, {"smiles": "CCCCC(=O)OCC1OC(O)CC(OC(=O)CCCC)C1O", "note": "(centres unmarked) [WP1232]", "values": [{"measurement": "IC50", "setting": "Colo357-FG", "value": 490, "unit": "µM"}, {"measurement": "IC50", "setting": "U87", "value": 250, "unit": "µM"}]}, {"smiles": "CCCCC(=O)OC[C@H]1OC(O)C[C@@H](O)[C@@H]1OC(=O)CCCC", "note": "(stereo partly drawn) [WP1233, 4,6-Di-O-Valeroyl-2-Deoxy-D-Glucopyranose]", "values": [{"measurement": "IC50", "setting": "Colo357-FG", "value": 230, "unit": "µM"}, {"measurement": "IC50", "setting": "U87", "value": 200, "unit": "µM"}]}, {"smiles": "CCC(CC)C(=O)OCC1OC(O)CC(OC(=O)C(CC)CC)C1O", "note": "(centres unmarked) [WP1234]", "values": [{"measurement": "IC50", "setting": "Colo357-FG", "value": 100, "unit": "µM"}, {"measurement": "IC50", "setting": "U87", "value": 55, "unit": "µM"}]}, {"smiles": "CCC(CC)C(=O)OCC1OC(O)CC(O)C1OC(=O)C(CC)CC", "note": "[WP1241, 4,6-Di-O-(2-Ethyl)Butyryl-2-Deoxy-α-D-Glucopyranose]", "values": [{"measurement": "IC50", "setting": "Colo357-FG", "value": 280, "unit": "µM"}, {"measurement": "IC50", "setting": "U87", "value": 123, "unit": "µM"}]}, {"smiles": "CCC(=O)OCC1OC(O)CC(O)C1OC(=O)CC", "note": "(centres unmarked) [WP1242]", "values": [{"measurement": "IC50", "setting": "Colo357-FG", "value": 6380, "unit": "µM"}, {"measurement": "IC50", "setting": "U87", "value": 490, "unit": "µM"}]}, {"smiles": "CCC(CC)C(=O)OC1CC(OC(=O)C(CC)CC)C(O)C(CO)O1", "note": "[WP1261, 1,3-Di-O-(2-Ethyl)Butyryl-2-Deoxy-β-D-Glucopyranose]", "values": [{"measurement": "IC50", "setting": "Colo357-FG", "value": 340, "unit": "µM"}, {"measurement": "IC50", "setting": "U87", "value": 741, "unit": "µM"}]}, {"smiles": "CC(C)CC(=O)OCC1OC(O)CC(OC(=O)CC(C)C)C1O", "note": "(centres unmarked) [WP1263]", "values": [{"measurement": "IC50", "setting": "Colo357-FG", "value": 160, "unit": "µM"}, {"measurement": "IC50", "setting": "U87", "value": 37, "unit": "µM"}]}, {"smiles": "CCC(CC)C(=O)OCC1OCCC(OC(=O)C(CC)CC)C1O", "note": "(centres unmarked) [WP1317]", "values": [{"measurement": "IC50", "setting": "Colo357-FG", "value": 2100, "unit": "µM"}, {"measurement": "IC50", "setting": "U87", "value": 2100, "unit": "µM"}]}, {"smiles": "CCC(CC)C(=O)OCC1OC(O)CC(O)C1O", "note": "[WP1319, 6-O-(2-Ethyl)Butyric-2-Deoxy-D-Glucopyranose]", "values": [{"measurement": "IC50", "setting": "Colo357-FG", "value": 1700, "unit": "µM"}, {"measurement": "IC50", "setting": "U87", "value": 3000, "unit": "µM"}]}, {"smiles": "CCC(CC)C(=O)OC1CC(O)OC(CO)C1O", "note": "[WP1342, 3-O-(2-Ethyl)Butyryl-2-Deoxy-D-Glucopyranose]", "values": [{"measurement": "IC50", "setting": "Colo357-FG", "value": 13200, "unit": "µM"}, {"measurement": "IC50", "setting": "U87", "value": 2400, "unit": "µM"}]}, {"smiles": "O=C(OCC1OC(O)CC(OC(=O)C2CCCC2)C1O)C1CCCC1", "note": "(centres unmarked) [WP1343]", "values": [{"measurement": "IC50", "setting": "Colo357-FG", "value": 750, "unit": "µM"}, {"measurement": "IC50", "setting": "U87", "value": 109, "unit": "µM"}]}, {"smiles": "CCC(CC)C(=O)OCC1OCC(O)C(OC(=O)C(CC)CC)C1O", "note": "(centres unmarked) [WP1357]", "values": [{"measurement": "IC50", "setting": "Colo357-FG", "value": 540, "unit": "µM"}]}, {"smiles": "CCC(CC)C(=O)OC1CC(O)C(O)C(CO)O1", "note": "[WP1474, 1-O-(2-Ethyl)Butyryl-2-Deoxy-β-D-Glucopyranose]", "values": [{"measurement": "IC50", "setting": "U87", "value": 2400, "unit": "µM"}]}, {"smiles": "CCCC(CCC)C(=O)O[C@H]1C[C@@H](O)[C@H](O)[C@@H](CO)O1", "note": "[WP1490, 1-O-Valproyl-2-Deoxy-β-D-Glucopyranose]", "values": [{"measurement": "IC50", "setting": "Colo357-FG", "value": 2000, "unit": "µM"}, {"measurement": "IC50", "setting": "U87", "value": 2400, "unit": "µM"}]}, {"smiles": "CCCC(CCC)C(=O)OC[C@H]1OC(O)C[C@@H](O)[C@@H]1O", "note": "(stereo partly drawn) [WP1491, 6-O-Valproyl-2-Deoxy-D-Glucopyranose]", "values": [{"measurement": "IC50", "setting": "U87", "value": 2100, "unit": "µM"}]}, {"smiles": "CCCC(CCC)C(=O)O[C@@H]1CC(O)O[C@H](CO)[C@H]1O", "note": "(stereo partly drawn) [WP1512, 3-O-Valproyl-2-Deoxy-D-Glucopyranose]", "values": [{"measurement": "IC50", "setting": "U87", "value": 740, "unit": "µM"}]}, {"smiles": "CCCC(CCC)C(=O)O[C@H]1[C@H](O)CC(O)O[C@@H]1CO", "note": "(stereo partly drawn) [WP1513, 4-O-Valproyl-2-Deoxy-D-Glucopyranose]", "values": [{"measurement": "IC50", "setting": "Colo357-FG", "value": 1200, "unit": "µM"}, {"measurement": "IC50", "setting": "U87", "value": 1200, "unit": "µM"}]}]}
